In US9896435B2, “N-pyrrolidinyl,N′-pyrazolyl-urea, thiourea, guanidine and cyanoguanidine compounds as TrkA kinase inhibitors” (Array BioPharma Inc., priority 2012, dated 2018):

Assays:
Assay in all cases: KinaseProfiler off-target kinase profiling
Format in all cases: biochemical
Conditions in all cases: 10 μM, ATP near Km
TAO2 = TAO2 (Homo sapiens (Human), UniProt Q9UL54)
How it was run: (§1)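 Tested at 10 μM across the full kinase panel in duplicate, with ATP concentration near the Km of each kinase. Reported as POC.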

Rsk2 = Rsk2 (Homo sapiens (Human), UniProt P51812)
How it was run: as §1

NLK = NLK (Homo sapiens (Human), UniProt Q9UBE8)
How it was run: as §1

DDR2 = DDR2 (Homo sapiens (Human), UniProt Q16832)
How it was run: as §1

ULK3 = ULK3 (Homo sapiens (Human), UniProt Q6PHR2)
How it was run: as §1

ERK2 = ERK2 (Homo sapiens (Human), UniProt P28482)
How it was run: as §1

Haspin = Haspin (Homo sapiens (Human), UniProt Q8TF76)
How it was run: as §1

p38delta = p38delta (Homo sapiens (Human), UniProt O15264)
How it was run: as §1

MST1 = MST1 (Homo sapiens (Human), UniProt Q13043)
How it was run: as §1

Pim-3 = Pim-3 (Homo sapiens (Human), UniProt Q86V86)
How it was run: as §1

Met = Met (Homo sapiens (Human), UniProt P08581)
How it was run: as §1

FGFR1 = FGFR1 (Homo sapiens (Human), UniProt P11362)
How it was run: as §1

JNK2alpha2 = JNK2alpha2 (Homo sapiens (Human), UniProt P45984)
How it was run: as §1

DRAK1 = DRAK1 (Homo sapiens (Human), UniProt Q9UEE5)
How it was run: as §1

AKT3 = AKT3 (Homo sapiens (Human), UniProt Q9Y243)
How it was run: as §1

Flt4 = Flt4 (Homo sapiens (Human), UniProt P35916)
How it was run: as §1

Ros = Ros (Homo sapiens (Human), UniProt P08922)
How it was run: as §1

MAPKAP-K5 = MAPKAP-K5 (Homo sapiens (Human), UniProt Q8IW41)
How it was run: as §1

CDK5/p35 = CDK5/p35 (Homo sapiens (Human), UniProt Q00535)
How it was run: as §1

TAO1 = TAO1 (Homo sapiens (Human), UniProt Q7L7X3)
How it was run: as §1

EphA7 = EphA7 (Homo sapiens (Human), UniProt Q15375)
How it was run: as §1

Txk = Txk (Homo sapiens (Human), UniProt P42681)
How it was run: as §1

PDK1 = PDK1 (Homo sapiens (Human), UniProt O15530)
How it was run: as §1

PKCeta = PKCeta (Homo sapiens (Human), UniProt P24723)
How it was run: as §1

MST3 = MST3 (Homo sapiens (Human), UniProt Q9Y6E0)
How it was run: as §1

PRKG1alpha = PRKG1alpha (Homo sapiens (Human), UniProt Q13976)
How it was run: as §1

CK1gamma3 = CK1gamma3 (Homo sapiens (Human), UniProt Q9Y6M4)
How it was run: as §1

eEF-2K = eEF-2K (Homo sapiens (Human), UniProt O00418)
How it was run: as §1

PAK6 = PAK6 (Homo sapiens (Human), UniProt Q9NQU5)
How it was run: as §1

TNK2 = TNK2 (Homo sapiens (Human), UniProt Q07912)
How it was run: as §1

p70S6K = p70S6K (Homo sapiens (Human), UniProt P23443)
How it was run: as §1

MKNK2 = MKNK2 (Homo sapiens (Human), UniProt Q9HBH9)
How it was run: as §1

Rsk4 = Rsk4 (Homo sapiens (Human), UniProt Q9UK32)
How it was run: as §1

p38alpha = p38alpha (Homo sapiens (Human), UniProt Q16539)
How it was run: as §1

EphA3 = EphA3 (Homo sapiens (Human), UniProt P29320)
How it was run: as §1

PTK5 = PTK5 (Homo sapiens (Human), UniProt P42685)
How it was run: as §1

EGFR = EGFR (Homo sapiens (Human), UniProt P00533)
How it was run: as §1

ZAP-70 = ZAP-70 (Homo sapiens (Human), UniProt P43403)
How it was run: as §1

CK2alpha2 = CK2alpha2 (Homo sapiens (Human), UniProt P19784)
How it was run: as §1

AKT2 = AKT2 (Homo sapiens (Human), UniProt P31751)
How it was run: as §1

Chain of MAPKAP-K5 (Q8IW41 whole entry): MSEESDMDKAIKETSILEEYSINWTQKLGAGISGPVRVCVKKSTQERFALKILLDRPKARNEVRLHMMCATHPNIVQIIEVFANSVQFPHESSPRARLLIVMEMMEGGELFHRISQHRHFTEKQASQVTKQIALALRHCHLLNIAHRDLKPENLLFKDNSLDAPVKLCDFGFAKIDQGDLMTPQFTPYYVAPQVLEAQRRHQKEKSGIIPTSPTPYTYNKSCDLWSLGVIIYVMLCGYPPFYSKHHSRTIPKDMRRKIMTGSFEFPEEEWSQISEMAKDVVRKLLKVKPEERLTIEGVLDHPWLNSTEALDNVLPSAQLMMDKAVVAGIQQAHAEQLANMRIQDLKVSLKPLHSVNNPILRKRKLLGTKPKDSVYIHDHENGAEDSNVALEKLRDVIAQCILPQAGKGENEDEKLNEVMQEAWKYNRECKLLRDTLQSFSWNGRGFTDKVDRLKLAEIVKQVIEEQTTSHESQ
Chain of Haspin (Q8TF76 whole entry): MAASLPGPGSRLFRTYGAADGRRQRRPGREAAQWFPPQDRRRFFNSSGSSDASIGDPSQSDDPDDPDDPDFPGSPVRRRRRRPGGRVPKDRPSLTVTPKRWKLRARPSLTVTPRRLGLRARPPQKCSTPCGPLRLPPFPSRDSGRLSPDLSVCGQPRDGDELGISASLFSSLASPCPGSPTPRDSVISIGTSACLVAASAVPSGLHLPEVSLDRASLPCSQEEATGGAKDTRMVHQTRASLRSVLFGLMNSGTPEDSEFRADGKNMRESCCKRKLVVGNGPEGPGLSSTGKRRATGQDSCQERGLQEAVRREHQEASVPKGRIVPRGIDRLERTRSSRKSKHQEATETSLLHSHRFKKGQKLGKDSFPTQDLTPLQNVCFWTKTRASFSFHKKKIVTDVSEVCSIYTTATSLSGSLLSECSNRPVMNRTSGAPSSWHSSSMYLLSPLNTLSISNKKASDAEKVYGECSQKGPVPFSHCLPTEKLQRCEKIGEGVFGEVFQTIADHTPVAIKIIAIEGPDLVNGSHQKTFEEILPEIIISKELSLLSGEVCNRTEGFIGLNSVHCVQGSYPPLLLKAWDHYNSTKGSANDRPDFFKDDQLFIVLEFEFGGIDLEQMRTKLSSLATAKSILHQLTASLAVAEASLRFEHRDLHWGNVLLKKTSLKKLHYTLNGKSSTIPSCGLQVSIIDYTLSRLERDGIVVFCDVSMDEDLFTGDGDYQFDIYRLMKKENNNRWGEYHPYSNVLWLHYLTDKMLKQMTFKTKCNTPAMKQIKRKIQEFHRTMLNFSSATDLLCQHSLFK
Chain of p38delta (O15264 whole entry): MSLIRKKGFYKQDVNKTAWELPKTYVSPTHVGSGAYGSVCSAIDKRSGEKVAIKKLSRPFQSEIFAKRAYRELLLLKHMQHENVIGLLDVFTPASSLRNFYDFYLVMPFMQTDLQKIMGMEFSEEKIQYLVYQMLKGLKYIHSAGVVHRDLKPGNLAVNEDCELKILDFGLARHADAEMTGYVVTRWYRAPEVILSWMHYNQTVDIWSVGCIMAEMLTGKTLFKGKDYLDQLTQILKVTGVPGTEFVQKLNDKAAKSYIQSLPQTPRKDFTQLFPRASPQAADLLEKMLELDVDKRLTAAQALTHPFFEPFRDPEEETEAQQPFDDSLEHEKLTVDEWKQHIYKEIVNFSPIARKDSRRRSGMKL
Chain of ZAP-70 (P43403 whole entry): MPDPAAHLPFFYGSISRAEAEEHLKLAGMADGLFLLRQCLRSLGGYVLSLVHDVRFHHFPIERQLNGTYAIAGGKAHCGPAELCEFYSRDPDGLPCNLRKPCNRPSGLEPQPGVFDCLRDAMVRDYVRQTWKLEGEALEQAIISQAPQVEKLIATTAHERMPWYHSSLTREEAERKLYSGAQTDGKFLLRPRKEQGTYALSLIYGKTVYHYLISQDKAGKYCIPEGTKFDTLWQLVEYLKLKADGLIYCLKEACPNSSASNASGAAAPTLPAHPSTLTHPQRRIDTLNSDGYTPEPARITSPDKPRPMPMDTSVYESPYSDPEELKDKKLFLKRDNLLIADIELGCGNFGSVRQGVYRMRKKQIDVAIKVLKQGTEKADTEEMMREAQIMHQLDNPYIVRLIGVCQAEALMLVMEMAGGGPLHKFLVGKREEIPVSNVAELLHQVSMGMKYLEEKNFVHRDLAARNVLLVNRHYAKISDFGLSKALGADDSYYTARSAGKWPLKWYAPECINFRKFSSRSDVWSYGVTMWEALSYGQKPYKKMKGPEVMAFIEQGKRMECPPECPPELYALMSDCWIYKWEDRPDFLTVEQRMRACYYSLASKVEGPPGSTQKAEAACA
Chain of TNK2 (Q07912 whole entry): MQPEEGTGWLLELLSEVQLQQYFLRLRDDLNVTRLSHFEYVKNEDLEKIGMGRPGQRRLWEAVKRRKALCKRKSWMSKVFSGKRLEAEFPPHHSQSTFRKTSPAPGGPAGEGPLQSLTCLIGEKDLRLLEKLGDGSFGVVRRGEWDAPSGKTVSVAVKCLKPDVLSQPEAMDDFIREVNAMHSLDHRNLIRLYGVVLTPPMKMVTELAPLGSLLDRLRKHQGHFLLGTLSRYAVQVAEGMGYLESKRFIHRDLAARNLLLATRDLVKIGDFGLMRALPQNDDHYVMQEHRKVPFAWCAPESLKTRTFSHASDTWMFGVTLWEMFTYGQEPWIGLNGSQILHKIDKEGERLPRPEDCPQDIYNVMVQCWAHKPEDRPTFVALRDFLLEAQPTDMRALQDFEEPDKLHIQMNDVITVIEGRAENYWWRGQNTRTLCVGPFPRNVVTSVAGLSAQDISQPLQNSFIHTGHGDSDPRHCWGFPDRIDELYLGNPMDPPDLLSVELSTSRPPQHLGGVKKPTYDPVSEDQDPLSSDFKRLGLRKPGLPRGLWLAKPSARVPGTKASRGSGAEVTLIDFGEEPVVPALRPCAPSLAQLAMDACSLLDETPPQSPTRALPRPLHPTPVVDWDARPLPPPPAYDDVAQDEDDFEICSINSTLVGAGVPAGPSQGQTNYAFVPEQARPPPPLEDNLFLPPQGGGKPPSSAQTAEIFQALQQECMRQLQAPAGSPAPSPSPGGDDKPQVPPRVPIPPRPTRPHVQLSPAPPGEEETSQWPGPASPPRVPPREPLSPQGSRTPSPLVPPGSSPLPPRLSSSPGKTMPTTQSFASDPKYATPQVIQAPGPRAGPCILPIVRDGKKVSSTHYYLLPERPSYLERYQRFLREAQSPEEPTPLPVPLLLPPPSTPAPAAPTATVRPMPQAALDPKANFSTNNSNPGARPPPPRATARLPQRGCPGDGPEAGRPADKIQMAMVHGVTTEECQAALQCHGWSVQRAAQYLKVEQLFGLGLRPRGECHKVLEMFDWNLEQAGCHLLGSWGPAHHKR
Chain of EphA3 (P29320 21-983): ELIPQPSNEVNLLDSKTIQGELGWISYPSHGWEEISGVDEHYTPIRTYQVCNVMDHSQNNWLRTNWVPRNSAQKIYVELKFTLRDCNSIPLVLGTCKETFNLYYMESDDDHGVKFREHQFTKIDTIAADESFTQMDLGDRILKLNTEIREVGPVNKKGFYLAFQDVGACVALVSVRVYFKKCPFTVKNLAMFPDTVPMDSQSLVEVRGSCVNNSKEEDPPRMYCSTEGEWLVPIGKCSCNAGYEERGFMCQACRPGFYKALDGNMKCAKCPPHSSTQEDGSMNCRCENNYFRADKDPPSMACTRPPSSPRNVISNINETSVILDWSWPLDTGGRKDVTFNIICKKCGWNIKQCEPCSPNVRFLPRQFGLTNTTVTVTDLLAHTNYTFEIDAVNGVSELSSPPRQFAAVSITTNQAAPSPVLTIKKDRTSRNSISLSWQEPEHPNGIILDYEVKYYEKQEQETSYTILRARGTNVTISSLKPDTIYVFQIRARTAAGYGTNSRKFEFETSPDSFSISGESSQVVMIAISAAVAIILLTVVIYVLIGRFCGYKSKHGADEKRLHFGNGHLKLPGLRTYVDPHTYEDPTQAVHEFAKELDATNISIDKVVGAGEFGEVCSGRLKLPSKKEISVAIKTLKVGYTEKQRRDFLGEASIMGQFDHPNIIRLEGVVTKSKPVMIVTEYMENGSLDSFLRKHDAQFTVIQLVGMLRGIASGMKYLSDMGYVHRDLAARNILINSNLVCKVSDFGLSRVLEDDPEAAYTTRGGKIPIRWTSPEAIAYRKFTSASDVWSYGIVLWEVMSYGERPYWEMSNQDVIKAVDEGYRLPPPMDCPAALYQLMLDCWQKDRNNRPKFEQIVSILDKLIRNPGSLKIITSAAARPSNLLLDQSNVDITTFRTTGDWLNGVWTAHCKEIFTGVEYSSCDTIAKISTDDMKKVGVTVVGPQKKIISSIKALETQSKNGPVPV
Chain of CK2alpha2 (P19784 whole entry): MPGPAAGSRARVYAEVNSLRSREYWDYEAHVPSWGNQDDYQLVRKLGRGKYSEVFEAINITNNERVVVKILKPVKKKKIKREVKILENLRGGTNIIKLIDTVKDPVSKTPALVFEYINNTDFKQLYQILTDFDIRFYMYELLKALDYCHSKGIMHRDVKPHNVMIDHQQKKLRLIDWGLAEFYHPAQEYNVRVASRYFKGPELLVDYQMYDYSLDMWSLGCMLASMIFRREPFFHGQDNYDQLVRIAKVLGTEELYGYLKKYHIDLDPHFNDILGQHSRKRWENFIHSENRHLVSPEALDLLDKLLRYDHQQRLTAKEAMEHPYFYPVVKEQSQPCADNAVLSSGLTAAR

SMILES	Avg POC (TAO2) [POC]	Avg POC (Rsk2) [POC]	Avg POC (NLK) [POC]	Avg POC (DDR2) [POC]	Avg POC (ULK3) [POC]	Avg POC (ERK2) [POC]	Avg POC (Haspin) [POC]	Avg POC (p38delta) [POC]	Avg POC (MST1) [POC]	Avg POC (Pim-3) [POC]	Avg POC (Met) [POC]	Avg POC (FGFR1) [POC]	Avg POC (JNK2alpha2) [POC]	Avg POC (DRAK1) [POC]	Avg POC (AKT3) [POC]	Avg POC (Flt4) [POC]	Avg POC (Ros) [POC]	Avg POC (MAPKAP-K5) [POC]	Avg POC (CDK5/p35) [POC]	Avg POC (TAO1) [POC]	other results
COCCN1C[C@@H](NC(=O)Nc2c(C)c(-c3ccnc(C)c3)nn2-c2ccccc2)[C@H](c2ccc(F)c(F)c2)C1 [Example 2, 1-((3S,4R)-4-(3,4-difluorophenyl)-1-(2-methoxyethyl)pyrrolidin-3-yl)-3-(4-methyl-3-(2-methylpyridin-4-yl)-1-phenyl-1H-pyrazol-5-yl)urea]	97	106	111.5	100.5	100	106.5	71.5	107.5	94	104	106	106.5	100	86.5	110	95	105	100	113	102.5	Avg POC (EphA7): 101.5 POC; Avg POC (Txk): 99.5 POC; Avg POC (PDK1): 94.5 POC; Avg POC (PKCeta): 108.5 POC; Avg POC (MST3): 101 POC; Avg POC (PRKG1alpha): 108 POC; Avg POC (CK1gamma3): 87.5 POC; Avg POC (eEF-2K): 98.5 POC; Avg POC (PAK6): 106 POC; Avg POC (TNK2): 109.5 POC; Avg POC (p70S6K): 105.5 POC; Avg POC (MKNK2): 101 POC; Avg POC (Rsk4): 136.5 POC; Avg POC (p38alpha): 112 POC; Avg POC (EphA3): 101.5 POC; Avg POC (PTK5): 108 POC; Avg POC (EGFR): 105.5 POC; Avg POC (ZAP-70): 93 POC; Avg POC (CK2alpha2): 119.5 POC; Avg POC (AKT2): 113 POC
COCCN1C[C@@H](NC(=O)Nc2c(C)c(-c3cnc(C)nc3)nn2-c2ccccc2)[C@H](c2cc(F)cc(F)c2)C1 [Example 14, 1-((3S,4R)-4-(3,5-difluorophenyl)-1-(2-methoxyethyl)pyrrolidin-3-yl)-3-(4-methyl-3-(2-methylpyrimidin-5-yl)-1-phenyl-1H-pyrazol-5-yl)urea]	102.5	99.5	108.5	96	98	92.5	96	102.5	97.5	108.5	96.5	101.5	97	101.5	104	92.5	91	123.5	115.5	96.5	Avg POC (EphA7): 106.5 POC; Avg POC (Txk): 98.5 POC; Avg POC (PDK1): 101.5 POC; Avg POC (PKCeta): 100 POC; Avg POC (MST3): 105.5 POC; Avg POC (PRKG1alpha): 100.5 POC; Avg POC (CK1gamma3): 95 POC; Avg POC (eEF-2K): 103 POC; Avg POC (PAK6): 102 POC; Avg POC (TNK2): 97.5 POC; Avg POC (p70S6K): 98 POC; Avg POC (MKNK2): 101 POC; Avg POC (Rsk4): 113.5 POC; Avg POC (p38alpha): 101 POC; Avg POC (EphA3): 106.5 POC; Avg POC (PTK5): 91 POC; Avg POC (EGFR): 96.5 POC; Avg POC (ZAP-70): 101 POC; Avg POC (CK2alpha2): 120 POC; Avg POC (AKT2): 119.5 POC
